According to patent publication US8158340B2, “Methods for detecting conformational changes in bioentities” (Corning Incorporated, priority 2005, dated 2012):
Counter-ions that a name gives are not always drawn.

How the values were obtained:
equine cytochrome C = equine cytochrome C (Equus caballus, UniProt P00004); assay: Catalytic digestion: trypsin digestion of immobilized cytochrome C with degrading catalyst; format: biochemical; conditions: 15 units of trypsin per well, FIG. 2
Experimental: Chem. Soc., 2004, 126:12833-12842 and tested as a degrading catalyst. On the Epic™ System, equine cytochrome C was chemically immobilized onto the EMA surface. The comparative trypsin digestion on the Epic™ system was measured. […] In these assays, 15 units of trypsin were used in each well. No titration was done for the enzyme, the cytochrome protein or the copper II porphyrin.

H.S.A. [1] = biological target: T1, H.S.A. (Homo sapiens, UniProt P02768); assay: Percent crosslinking of H.S.A. with glutaraldehyde in presence of denaturants; format: biochemical; conditions: as the concentration of denaturing agent increased; FIGS. 7-10
Experimental: The fractional amount of chemical crosslinking was measured by taking the ratio of added crosslinker attached to the protein relative to amount of initial protein on the sensor. Initially, protein is immobilized and washed on the Epic™ sensor and then measured for amount of immobilized protein. The protein is exposed to glutaraldehyde with a specified solution condition. The mass change that resulted from crosslinking is recorded again on the Epic™ system. The ratio of picometer change by crosslinker (due to mass increase) to mass of protein immobilized (as measured by initial change in picometer due to protein immobilization) is referred to as the fractional amount of crosslinking (% XL or % crosslinking), which is depicted in FIG. 6. This mass change by chemical crosslinking provides a “snap shot” of the conformational state accessible to cross linker.
As a protein or bioentity is denatured it should unfold and thereby increase the number of available sites for crosslinking.

trypsin or chymotrypsin = assay: Conformational assay: label-independent digestion of immobilized albumins; format: biochemical; conditions: relative to normal BSA; FIGS. 3 and 4
Experimental: In this assay, it was determined whether or not a label-independent detection assay can distinguish between different albumins by digestion with either trypsin or chymotrypsin on the Epic™ system.

Calmodulin (CAM) = biological target: T2, Calmodulin (CAM) (Homo sapiens, UniProt P0DP23); assay: Surrogate binding: calcium additions to immobilized calmodulin on Epic biosensor; conditions: nine additions of 200 μM calcium chloride
T2 construct: purchased Upstate cell signaling solutions 14-368
Description: In this assay, the detection of macromolecular events whose mass changes are below detection due to sparingly low refractive index changes on a biosensor are consequentially assayed through surrogate associations that are then detectable by refractive index changes (i.e., any event (ion or not) which conveys a signature through association and is assayable on a biosensor).
Calmodulin (CAM) is a classic calcium binding protein. It binds four calcium ions per protein. At saturation, four ligands at a mass of 40 Daltons equals 160 Dalton is produced. This mass is expected to be below normal direct bind detection. However, upon calcium binding CAM undergoes a dramatic conformational transition. The physical changes by CAM play a crucial role in the functioning of this molecule in vivo. Fluorescent probes that sense hydrophobic transitions have been used for more than a decade. […] Calmodulin was chosen as the model system for the concept of surrogate direct binding because the binding of calcium to this protein should not be readily detectable on a biosensor (4×40 Dalton for calcium=160 Da).
CAM was ordered through Upstate cell signaling solutions (Cat #14-368). […] Yet, when a hydrophobic probe is employed (a surrogate direct bind probe), a calcium modulation interaction is detected.

trypsin [2] = assay: Comparative trypsin digestion of myoglobin, apomyoglobin and heme-inserted apomyoglobin on Epic system; format: biochemical; conditions: approximately 23 minutes; for trypsin digestion (refractive index change): 15 units of trypsin in 1× PBS, FIGS. 18 and 19
Experimental: The heme inserted wells as well as the apoprotein and myoglobin wells were digested using 15 units of trypsin in 1× PBS. The digestion process was allowed to proceed for approximately 23 minutes with continuous monitoring of refractive index changes on the LID system. The hierarchy of digestion followed the following order; myoglobin (−250 pm)<apomyoglobin with heme (−350 pm)<apomyoglobin (−500 pm) (FIGS. 18 and 19). […] The difference between the native myoglobin and the heme inserted apomyoglobin may be a result of slight denaturation effects that were introduced in the preparation of the apomyoglobin protein.

trypsin [3] = assay: Trypsin digestion of standard fluorescent substrate BZIP plus warfarin (specificity control); format: biochemical
Description: It is contemplated that any conformationally altered ligand-bioentity complex can be further confirmed or characterized through secondary analysis such as peptide digest mapping, deuterium exchange studies, Michaelis-Menten kinetic studies, circular dichroism, intrinsic fluorescence analysis, competition studies with fluorescence polarization assays and the like. In addition, the effects that a ligand or putative ligand may have on the digesting agent may be analyzed using a known non-binding agent or through kinetic analysis using fluorescent assays or absorbance assays. For example, rhodamine 110, bis-(CBZ-L-isoleucyl-L-prolyl-L-arginine amide), dihydrochloride (BZiPAR, Invitrogen Inc.) may be used in fluorescence assays with trypsin and a putative ligand. Similarly, Nα-benzoyl-L-arginine ethyl ester hydrochloride (BAEE) may also be used for spectrophotometric assays with trypsin and other proteases.
(§1) The data indicates several properties.

rabbit IgG = assay: Trypsin digestion of rabbit IgG plus warfarin (specificity control); format: biochemical; conditions: generic protein control
Description: as §1

H.S.A. [4] = biological target: T1, H.S.A.; assay: Conformational mode locking: trypsin digestion of H.S.A. after glutaraldehyde crosslinking; format: biochemical; conditions: 10% glutaraldehyde in 0.1 M phosphate pH 7
Description: The use of covalent chemical crosslinking as a way of assaying conformational states or transitions of bioentities was investigated. H.S.A. was immobilized on an Epic™ sensor. The protein was crosslinked with glutaraldehyde under a variety of conditions (FIG. 5). Glutaraldehyde is a small molecular weight organic chemical (100 Dalton). It can undergo a variety of chemical crosslinking events with either itself or several amino acids. For this study, 10% glutaraldehyde in 0.1 M phosphate pH 7 was used. This was done to avoid the possibility of polymeric glut from forming. The amount of protein immobilized on the surface was also measured as well as the amount of chemical crosslinking and trypsin digestion. […] This effect was expected since crosslinking should affix the protein to the surface and render mass loss incapable. This finding should permit the ability to immobilize affinity capture molecules like antibodies and streptavidin and after crosslinking prevent their digestion. These crosslinked capture structures can then be used to specifically orient their antigens for antigen specific digestion.

H.S.A. [5] = biological target: T1, H.S.A.; assay: Tryptic digestion of H.S.A. after chemical modification; format: biochemical; conditions: 5 minute treatment of 2,3-butanedione; FIG. 20
Description: In this type of assay, the digestion signal can be used as a means for screening large compound libraries for modulators of digestion (i.e. inhibitors or enhancers). The digestion inhibitors could be directed against-any lytic agent including but not limited to peptidases (as in the Caspase assay), proteases, nucleases, glucuronidase, glucosidase, lipases and the like. The assay is capable of detecting small molecule inhibitors of digestion of any molecular weight size. […] The extent to which an inhibitor can prevent digestion is assayed. […] The bar in FIG. 20, labeled 2,3-butanedione represents the net tryptic digestion of H.S.A. after a 5 minute treatment of 2,3-butanedione. The chemical 2,3-butanedione is an effective chemical modifier of amino acids such as lysine or arginine and is known in the art as an effective inhibitor of trypsin digestion via target modification.

T1 sequence (P02768 25-609): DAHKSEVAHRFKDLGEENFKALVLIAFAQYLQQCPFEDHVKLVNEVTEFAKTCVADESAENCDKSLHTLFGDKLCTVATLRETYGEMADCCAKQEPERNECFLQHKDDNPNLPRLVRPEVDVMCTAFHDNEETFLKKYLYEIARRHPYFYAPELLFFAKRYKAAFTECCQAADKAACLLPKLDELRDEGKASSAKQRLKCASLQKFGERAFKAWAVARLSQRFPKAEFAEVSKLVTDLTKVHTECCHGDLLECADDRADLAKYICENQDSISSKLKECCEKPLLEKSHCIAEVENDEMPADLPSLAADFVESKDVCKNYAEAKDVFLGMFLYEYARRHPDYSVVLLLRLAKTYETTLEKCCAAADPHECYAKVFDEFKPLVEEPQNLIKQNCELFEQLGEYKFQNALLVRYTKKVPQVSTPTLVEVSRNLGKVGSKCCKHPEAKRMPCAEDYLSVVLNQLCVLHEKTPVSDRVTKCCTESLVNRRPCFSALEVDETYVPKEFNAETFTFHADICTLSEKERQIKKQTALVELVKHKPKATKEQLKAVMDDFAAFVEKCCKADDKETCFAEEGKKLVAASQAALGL
Sequence of equine cytochrome C (P00004 whole entry): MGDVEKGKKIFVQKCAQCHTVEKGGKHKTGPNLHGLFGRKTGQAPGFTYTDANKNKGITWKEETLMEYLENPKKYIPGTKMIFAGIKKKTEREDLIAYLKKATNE

For O=C(O)c1ccc(-c2c3nc(c(-c4ccc(C(=O)O)cc4)c4ccc([nH]4)c(-c4ccc(C(=O)O)cc4)c4nc(c(-c5ccc(C(=O)O)cc5)c5ccc2[nH]5)C=C4)C=C3)cc1.[Cu+2] [copper (II) tetra-(4-carboxyphenyl)porphyrin], the “trypsin digestion of cytochrome C with degrading catalyst” value (equine cytochrome C) was “significant enhancement of digestion”.

With NC(N)=O [Urea] the “percent crosslinking of H.S.A. with glutaraldehyde” value (“percent crosslinking” below) (H.S.A. [1]) was “increasing percent crosslinking”.

In the case of “methylated BSA: methylated bovine serum albumin immobilized on the biosensor”, the “digestion profile of immobilized albumin” value (trypsin or chymotrypsin) is reported as “dramatic reduction in digestion rates”.

In the case of [Ca+2].[Cl-].[Cl-] [calcium chloride], the “binding detection of calcium to CAM with surrogate probe” value (Calmodulin (CAM); 100 μM ANS hydrophobic probe present) is reported as “binding event” and the “direct bind detection of calcium to CAM” value (Calmodulin (CAM); CAM in 1×PBS without probe, relative to blocked wells) is reported as “no binding data”.

With N=C(N)N [guanidine HCL] the “percent crosslinking” value (H.S.A. [1]) was “increasing percent crosslinking”.

With “acetylated BSA: acetylated bovine serum albumin immobilized on the biosensor” the “digestion profile of immobilized albumin” value (trypsin or chymotrypsin) was “dramatic enhanced digestion profile”.

In the case of heme, the “reduction in digestion of apomyoglobin caused by heme insertion” value (trypsin [2]; 15 units of trypsin) is reported as 140 picometer.

With CC(=O)CC(c1ccccc1)c1c(O)c2ccccc2oc1=O (centres unmarked) [warfarin] the “reduction in trypsin digestion rate, BZIP plus warfarin” value (trypsin [3]) was “no such reduction in digestion rate was observed” and the “reduction in trypsin digestion rate, rabbit IgG plus warfarin” value (rabbit IgG) was “no such reduction in digestion rate was observed”.

O=CCCCC=O [glutaraldehyde] was tested, and the “proteolytic (trypsin) digestion of H.S.A. after chemical crosslinking” value (H.S.A. [4]) was “dramatically inhibited/attenuated”.

With [Cl-].[Cl-].[Mg+2] [MgCl] the “percent crosslinking” value (H.S.A. [1]) was “increasing percent crosslinking”.

In the case of [Cl-].[Na+] [NaCl], the “percent crosslinking” value (H.S.A. [1]) is reported as “increasing percent crosslinking”.

With CC(=O)C(C)=O [2,3-butanedione] the “net tryptic digestion of H.S.A. after chemical modification” value (H.S.A. [5]) was “digestion is effected by chemical modification”.

B1: myoglobin: native horse myoglobin (protein, UniProt P68082 2-154, looked up)
Myoglobin: GLSDGEWQQVLNVWGKVEADIAGHGQEVLIRLFTGHPETLEKFDKFKHLKTEAEMKASEDLKKHGTVVLTALGGILKKKGHHEAELKPLAQSHATKHKIPIKYLEFISDAIIHVLHSKHPGDFGADAQGAMTKALELFRNDIAAKYKELGFQG
In the case of B1, the “trypsin digestion (refractive index change)” value (trypsin [2]) is reported as −250 pm.

B2: apomyoglobin: horse apomyoglobin made by acid-acetone heme removal (protein, UniProt P68082 2-154, looked up)
Myoglobin: GLSDGEWQQVLNVWGKVEADIAGHGQEVLIRLFTGHPETLEKFDKFKHLKTEAEMKASEDLKKHGTVVLTALGGILKKKGHHEAELKPLAQSHATKHKIPIKYLEFISDAIIHVLHSKHPGDFGADAQGAMTKALELFRNDIAAKYKELGFQG
modifications: heme removed
notes: horse apomyoglobin made by acid-acetone heme removal
B2 was tested, and the “trypsin digestion (refractive index change)” value (trypsin [2]) was −500 pm.

B3: apomyoglobin with heme: apomyoglobin after heme insertion with 2 μM hemin (protein, UniProt P68082 2-154, looked up)
Myoglobin: GLSDGEWQQVLNVWGKVEADIAGHGQEVLIRLFTGHPETLEKFDKFKHLKTEAEMKASEDLKKHGTVVLTALGGILKKKGHHEAELKPLAQSHATKHKIPIKYLEFISDAIIHVLHSKHPGDFGADAQGAMTKALELFRNDIAAKYKELGFQG
modifications: heme reconstituted
notes: apomyoglobin after heme insertion with 2 μM hemin
With B3 the “trypsin digestion (refractive index change)” value (trypsin [2]) was −350 pm.
